Experimental data: patent US11932638B2, “Ion channel inhibitor compounds for cancer treatment” (Centre National de la Recherche Scientifique, priority 2017, dated 2024)

Legend:
[1] = biological target: T1, SK3 channel (Rattus norvegicus, UniProt P70605); experiment: Conventional manual patch clamp on HEK-rSK3 cells, SK3 channel activity; format: cell-based; details: for inhibition at 0.05 µM: 50 nM; for inhibition at 0.5 µM: 500 nM; for inhibition at 0.001 µM: 1 nM
T1 construct: expressed in transfected cells
Description: (§1) Cell Lines Used to Screen the Molecules on the Activity of SKCa Channels (Small Conductance Calcium-Activated Potassium Channel; SK1, SK2 and SK3) and IKCa Channels (Intermediate Conductance Calcium-Activated Potassium Channel, SK4)
(§2) Use was made of the HEK 293 T line, a foetal kidney line which was immortalised with the T antigen of the […] simian virus. This cell line is widely used on account of the ease with which these cells can be transfected with plasmids or other transfection vectors. Four stable lines were used for patch clamp experiments: HEK-hSK1, HEK-rSK2, HEK-rSK3 and HEK-IKCa/SK4 which respectively overexpress the SK1, SK2, SK3 and SK4 channels. The lines were obtained via stable transduction (Girault et al., Current Cancer Drug Targets, 2011, 11, 1111-25) and are those already routinely used to assay SK3 modulators (Potier et al. Br J Pharmacol. 2011 January; 162(2):464-79; Sevrain et al., Med. Chem. Commun., 2012, 3, 1471-1478; Sevrain et al., Organic & Biomolecular Chemistry, 2013 Jul. 21; 11(27):4479-87, Berthe W, Sevrain C M, Chantôme A, Bouchet A M, Gueguinou M, Fourbon Y, Potier-Cartereau M, Haelters J P, Couthon-Gourvès H, Vandier C, Jaffrès P A. ChemMedChem. 2016 Jul. 19; 11(14):1531-9). […] These lines therefore enabled us without difficulty to examine the effect of the molecules on the SK3 channel, and also the selectivity thereof by means of the patch clamp technique. The inhibitory activity of the non-toxic molecules was assayed on the activity of the SK3 channel. The selectivity of the molecules was determined by patch clamp on HEK cell models stably expressing the SK3 channel but also the SK1, SK2, SK3 or IKCa/SK4 channels.
Electrophysiology/Patch-Clamp
(§3) Patch clamp is a technique allowing measurement of the activity of ion channels by recording macroscopic (whole cell configuration) or microscopic (e.g. inside out configuration) ionic currents through the plasma membrane. For assay of the effect of the molecules on the SKCa/IKCa channels, two complementary techniques were used: conventional, manual patch clamp and automated patch clamp with the Nanion NPC-16 Patchliner Quattro (4 channels) (Potier et al., Mol Cancer Ther 2006, 5, 2946-53; Chantome et al., Exp Cell Res 2009, 315, 3620-30; Potier et al., Biochem Biophys Res Commun 2010, 397, 42-7; Girault et al., Current Cancer Drug Targets, 2011, 11, 1111-25; Sevrain et al., Med. Chem. Commun., 2012, 3, 1471-1478; Sevrain et al., Organic & Biomolecular Chemistry, 2013 Jul. 21; 11(27):4479-87; Chantome et al., Cancer Research, 2013 Aug. 1; 73(15):4852-61, Gueguinou M, Crottès D, Chantôme A, Rapetti-Mauss R, Potier-Cartereau M, Clarysse L, Girault A, Fourbon Y, Jézéquel P, Guérin-Charbonnel C, Fromont G, Martin P, Pellissier B, Schiappa R, Chamorey E, Mignen O, Uguen A, Borgese F, Vandier C, Soriani O. Oncogene. 2017 Jan. 23. doi: 10.1038/onc.2016.501, Berthe W, Sevrain C M, Chantôme A, Bouchet A M, Gueguinou M, Fourbon Y, Potier-Cartereau M, Haelters J P, Couthon-Gourvès H, Vandier C, Jaffrès P A. ChemMedChem. 2016 Jul. 19; 11(14):1531-9, Guéguinou M, Harnois T, Crottes D, Uguen A, Deliot N, Gambade A, Chantôme A, Haelters J P, Jaffrès P A, Jourdan M L, Weber G, Soriani O, Bougnoux P, Mignen O, Bourmeyster N, Constantin B, Lecomte T, Vandier C, Potier-Cartereau M. Oncotarget. 2016 Jun. 14; 7(24):36168-36184. doi: 10.18632/oncotarget.8786).
For conventional patch clamp, the micropipette is filled with an intrapipette medium—IPM (see composition below) and allows measurement of ionic currents at the same time as allowing maintaining of membrane potential (voltage clamp). The experimental device was composed of an anti-vibration table supporting an inverted microscope (Nikon, Eclipse TE 300). The Petri dish (Corning Incorporated, USA), containing the cells was placed on a plexiglass plate attached to the microscope stage. The pipette was connected to the amplifier (Axopatch 200B) as reference electrode which allowed closing of the electrical circuit. […]

[2] = biological target: T2, SK2 channel (Rattus norvegicus, UniProt P70604); experiment: Automated patch clamp (Nanion NPC-16 Patchliner Quattro) on HEK-rSK2 cells, SK2 channel activity; format: cell-based; details: for inhibition at 0.001 µM: 1 nM; for inhibition at 0.01 µM: 10 nM
T2 construct: expressed in transfected cells
Description: as §1, §2, §3
The technique of choice to determine molecules inhibiting the activity of ion channels is the patch-clamp technique. However, this technique which is manual is time-consuming and only gives low yields. Automation of patch-clamp brought a revolution in the study and screening of ion channels and has allowed the envisaging of assays with much faster flow rate and much higher yield. There exist several automatic patch clamp devices based on the use of chips. […]

[3] = system: MDA-MB-435s-Luc cells expressing the SK3 channel; experiment: In vivo mouse model of orthotopic xenograft: primary tumour and metastases; set-up: species or system female NMRI nude mice; details: 1 mg/kg intraperitoneal, three times per week
Description: In Vivo Mouse Model of Orthotopic Xenograft: Assay on Capacity of the Molecules to Reduce Tumour Development
This model allowed study on a metastatic cancer with development of the primary tumour and formation of metastases in parallel with primary tumour development. For this assay, female NMRI nude mice aged four weeks were used. To prepare the graft, the terminal end bud of the mice was cauterised with an electrical scalpel and 2 million cells expressing the SK3 channel and luciferase (MDA-MB-435s-Luc) implanted therein. Luciferase allows in vivo monitoring of tumour development via optical imaging (Girault et al., Current Cancer Drug Targets, 2011, 11, 1111-25; Chantome et al., Cancer Research, 2013 Aug. 1; 73(15):4852-61).
Two groups of mice were formed and compound 20 was prepared in a DMSO/PEG300/Water mixture (5:45:50) at 10 ml/kg: • Group 20 1: group treated via intraperitoneal injection of compound 20 at 1 mg/kg, three times per week for […]; and • Control group: group given injections with equivalent vehicle dilution […], three times per week for 15 weeks.
Development of the primary tumour was monitored in two manners: size measurement with a calliper rule (length×width×thickness) and measurement of bioluminescence with a bio-imaging device.
If the primary tumour reached a size of 900 mm^3, it was fully excised to best approach a clinical situation and exclude this variable which could impact the development of metastases. The experiment was continued with injections of compound 20 and monitoring of the development of metastases via BLI with front and back imaging of the mice.
The weight of the mice, bioluminescence and tumour size measurements were carried out every week to monitor tumour changes and metastases. For imaging, the mice were anaesthetised with isoflurane.
After about 15 weeks, the mice were sacrificed. Luciferin was injected before sacrifice to allow whole-animal imaging and imaging of each organ examined (bone, liver, lymph node, brain, colon).

Structure (SMILES): Cc1nc(NC2CCCc3ccccc32)c2ncccc2n1 (centres unmarked) [Compound 30, 2-Methyl-N-(1,2,3,4-tetrahydronaphthalen-1-yl)pyrido[3,2-d]pyrimidin-4-amine]
- inhibition at 0.05 µM [1]: 35.5%
- inhibition at 0.5 µM [1]: 52.9%
- inhibition at 10 µM ([1]; 10 μM): 87.2%
- inhibition at 10 µM ([2]; 10 μM): 95%

Structure (SMILES): c1cnc2c(NC3CCCCC3)ncnc2c1 [Compound 23, N-Cyclohexylpyrido[3,2-d]pyrimidin-4-amine]
- inhibition at 10 µM ([1]; 10 μM): 8.4%
- inhibition at 10 µM ([2]; 10 μM): 1%

Structure (SMILES): c1ccc2c3c(ccc2c1)CCCC3Nc1ncnc2cccnc12 (centres unmarked) [Compound 29, N-(1,2,3,4-Tetrahydrophenanthren-4-yl)pyrido[3,2-d]pyrimidin-4-amine]
- inhibition at 10 µM ([1]; 10 μM): 46%
- inhibition at 10 µM ([2]; 10 μM): 16.2%

Structure (SMILES): c1ccc2c(c1)CCC[C@H]2Nc1ncnc2cccnc12 [Compound 18, (R)—N-(1,2,3,4-Tetrahydronaphthalen-1-yl)pyrido[3,2-d]pyrimidin-4-amine]
- inhibition at 0.001 µM [1]: 44.7%
- inhibition at 0.01 µM ([1]; 10 nM): 59.7%
- inhibition at 0.1 µM ([1]; 100 nM): 96%
- inhibition at 10 µM ([1]; 10 μM): 89.9%
- inhibition at 0.001 µM [2]: 36.7%
- inhibition at 0.01 µM [2]: 81.4%
- inhibition at 0.1 µM ([2]; 100 nM): 92.9%
- inhibition at 10 µM ([2]; 10 μM): 97%

Structure (SMILES): CNc1nc(NC2CCCc3ccccc32)c2ncccc2n1 (centres unmarked) [Compound 35, N^2-methyl-N^4-(1,2,3,4-tetrahydronaphthalen-1-yl)pyrido[3,2-d]pyrimidine-2,4-diamine]
- inhibition at 0.1 µM ([2]; 100 nM): 83.7%
- inhibition at 10 µM ([2]; 10 μM): 91.4%

Structure (SMILES): Cl.c1ccc2c(c1)CCCC2Nc1ncnc2cccnc12 (centres unmarked) [Compound 75, N-Tetralin-1-ylpyrido[3,2-d]pyrimidin-3-ium-4-amine chloride]
- % SK3 inhibition ([1]; 10 nM): 10 nM: 92.43 ± 0.78 (N = 2) %
- inhibition at 0.1 µM ([1]; 100 nM): 85.4%
- inhibition at 10 µM ([1]; 10 μM): 88.8%
- inhibition at 0.1 µM ([2]; 100 nM): 80%
- inhibition at 10 µM ([2]; 10 μM): 93.3%

Structure (SMILES): Oc1nc(NC2CCCc3ccccc32)c2ncccc2n1 (centres unmarked) [Compound 34, 4-(1,2,3,4-tetrahydronaphthalen-1-ylamino)pyrido[3,2-d]pyrimidin-2-ol]
- inhibition at 0.05 µM [1]: 32.9%
- inhibition at 0.5 µM [1]: 40.4%
- inhibition at 0.1 µM ([2]; 100 nM): 92.7%
- inhibition at 10 µM ([2]; 10 μM): 94.8%

Structure (SMILES): c1ccc2c(c1)CCC[C@@H]2Nc1ncnc2cccnc12 [Compound 20, (S)—N-(1,2,3,4-Tetrahydronaphthalen-1-yl)pyrido[3,2-d]pyrimidin-4-amine]
- inhibition at 0.01 µM ([1]; 10 nM): 45.5%
- inhibition at 10 µM ([1]; 10 μM): 92.8%
- inhibition at 0.1 µM ([2]; 100 nM): 91.2%
- inhibition at 10 µM ([2]; 10 μM): 91.8%
- toxicity in xenografted mice [3]: apparent non-toxicity
- weight of the mice versus control group ([3]; at 10 weeks, xenografted mice): no significant difference in weight between the two groups
- primary tumour volume versus control group ([3]; at the time of primary tumour excision): Tumour volume did not differ between groups
- lung metastases ([3]; ex vivo after 15 weeks): developed lung metastases
- bone metastases ([3]; ex vivo after 15 weeks, FIG. 1): reduced the number of bone metastases
- ovarian and uterine metastases ([3]; ex vivo after 15 weeks, FIG. 2): fully stopped the development of ovarian and uterine metastases

Structure (SMILES): c1ccc2c(c1)CCCN2Nc1ncnc2cccnc12 [Compound 53, N-(3,4-Dihydroquinolin-1(2H)-yl)pyrido[3,2-d]pyrimidin-4-amine]
- inhibition at 0.001 µM [1]: 7.4%
- inhibition at 0.01 µM ([1]; 10 nM): 42.6%
- inhibition at 0.05 µM [1]: 29.2%
- inhibition at 0.1 µM ([1]; 100 nM): 41.9%
- inhibition at 0.5 µM [1]: 94.2%
- inhibition at 10 µM ([1]; 10 μM): 62.2%
- inhibition at 0.05 µM ([2]; 50 nM): 29.2%
- inhibition at 0.1 µM ([2]; 100 nM): 41.9%
- inhibition at 0.5 µM ([2]; 500 nM): 43.2%
- inhibition at 10 µM ([2]; 10 μM): 62.2%

Structure (SMILES): c1ccc2c(c1)CCCC2Nc1ncnc2cccnc12 (centres unmarked) [Compound 7, N-(1,2,3,4-Tetrahydronaphthalen-1-yl)pyrido[3,2-d]pyrimidin-4-amine]
- inhibition at 0.001 µM [1]: 42.2%
- % SK3 inhibition ([1]; 10 nM): 10 nM: 56.1 ± 4.8 (N = 3) %
- % SK3 inhibition ([1]; 100 nM): 100 nM: 81.3 ± 1.0 (N = 3) %
- % SK3 inhibition ([1]; 10 μM): 10 μM: 83.4 ± 3.2 (N = 8) %
- inhibition at 0.001 µM [2]: 35%
- inhibition at 0.01 µM [2]: 89.3%
- % SK2 inhibition ([2]; 100 nM): 100 nM: 91.5 ± 1.6 (N = 9) %
- % SK2 inhibition ([2]; 10 μM): 10 μM: 95.6 ± 1.2 (N = 9) %

Structure (SMILES): CCCCCCc1cnc2c(NC3CCCc4ccccc43)ncnc2c1 (centres unmarked) [Compound 40, 7-Hexyl-N-(1,2,3,4-tetrahydronaphthalen-1-yl)pyrido[3,2-d]pyrimidin-4-amine]
- inhibition at 0.1 µM ([1]; 100 nM): 11.9%
- inhibition at 10 µM ([1]; 10 μM): 82.2%
- inhibition at 0.1 µM ([2]; 100 nM): 25.6%
- inhibition at 10 µM ([2]; 10 μM): 88.1%
